From patent US7759337B2, “Phthalazine compounds and methods of use” (Amgen Inc., priority 2005, dated 2010)
pIC50: −log10 of the molar value.

What follows are compounds tested on production of TNF by monocytes activated with bacterial lipopolysaccharide (LPS) (assay: Lipopolysaccharide-activated monocyte TNF production assay). Conditions: Homo sapiens; whole blood monocyte assay (LPS induced TNF release).
Assay type: cell-based
Summary of the method: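 Adherent human PBMC-derived monocytes preincubated 60 min with nine two-fold compound dilutions, then stimulated with E. coli K532 LPS (30 ng/mL in the added medium) for 4 h at 37 °C. Supernatant TNF measured by sandwich ELISA; IC50 is the compound concentration halving TNF production, from second-order polynomial fits.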

Row | Structure (SMILES) | pIC50
1 | COc1ccc(-c2nncc3cc(-c4cc(C(N)=O)ccc4C)ccc23)c(Cl)c1 [Example 229, 3-[1-(2-chloro-4-methoxyphenyl)phthalazin-6-yl]-4-methylbenzamide] | ≥ 5.30
2 | COc1ncccc1-c1nncc2cc(-c3cc(C(=O)NC4CC4)ccc3C)ccc12 [Example 230, N-cyclopropyl-3-[1-(2-methoxypyridin-3-yl)phthalazin-6-yl]-4-methylbenzamide] | ≥ 5.30
3 | CCOc1ccc(-c2nncc3cc(-c4cc(C(N)=O)ccc4C)ccc23)c(Cl)c1 [Example 231, 3-[1-(2-chloro-4-ethoxyphenyl)phthalazin-6-yl]-4-methylbenzamide] | ≥ 5.30
4 | Cc1ccc(C(N)=O)cc1-c1ccc2c(-c3ccc(Cl)cc3C)nncc2c1 [Example 232, 3-[1-(4-chloro-2-methylphenyl)phthalazin-6-yl]-4-methylbenzamide] | ≥ 5.30
5 | Cc1ccc(C(=O)NC2CC2)cc1-c1ccc2c(-c3cccnc3Cl)nncc2c1 [Example 233, 3-[1-(2-chloropyridin-3-yl)phthalazin-6-yl]-N-cyclopropyl-4-methylbenzamide] | ≥ 5.30
6 | COc1ncc(-c2nncc3cc(-c4cc(C(=O)NC5CC5)ccc4C)ccc23)c(OC)n1 [Example 234, N-cyclopropyl-3-[1-(2,4-dimethoxypyrimidin-5-yl)phthalazin-6-yl]-4-methylbenzamide] | ≥ 5.30
7 | Cc1ccc(-c2nncc3cc(-c4cc(C(=O)NC5CC5)ccc4C)ccc23)c(Cl)c1 [Example 235, 3-[1-(2-chloro-4-methylphenyl)phthalazin-6-yl]-N-cyclopropyl-4-methylbenzamide] | ≥ 5.30
8 | Cc1ccc(C(N)=O)cc1-c1ccc2c(-c3ccc(S(N)(=O)=O)cc3C)nncc2c1 [Example 236, 3-{1-[4-(aminosulfonyl)-2-methylphenyl]phthalazin-6-yl}-4-methylbenzamide] | ≥ 5.30
9 | COc1ccc(-c2nncc3cc(-c4cc(C(N)=O)ccc4C)ccc23)c(C(F)(F)F)c1 [Example 237, 3-{1-[4-methoxy-2-(trifluoromethyl)phenyl]phthalazin-6-yl}-4-methylbenzamide] | ≥ 5.30
10 | CCOc1cc(Cl)ccc1-c1nncc2cc(-c3cc(C(N)=O)ccc3C)ccc12 [Example 238, 3-[1-(4-chloro-2-ethoxyphenyl)phthalazin-6-yl]-4-methylbenzamide] | ≥ 5.30
11 | Cc1ccc(C(=O)NC2CC2)cc1-c1ccc2c(-c3ccc(F)cc3)nncc2c1 [Example 239, N-cyclopropyl-3-[1-(4-fluorophenyl)phthalazin-6-yl]-4-methylbenzamide] | ≥ 5.30
12 | Cc1ccc(C(=O)NC2CC2)cc1-c1ccc2c(-c3ccc(CC(=O)O)cc3)nncc2c1 [Example 240, [4-(6-{5-[(cyclopropylamino)carbonyl]-2-methylphenyl}phthalazin-1-yl)phenyl]acetic acid] | ≥ 5.30
13 | Cc1ccc(C(=O)NC2CC2)cc1-c1ccc2c(-c3cccnc3C)nncc2c1 [Example 241, N-cyclopropyl-4-methyl-3-[1-(2-methylpyridin-3-yl)phthalazin-6-yl]benzamide] | ≥ 5.30
14 | COc1ccc(-c2nncc3cc(-c4cc(C(=O)NC5CC5)ccc4C)ccc23)c(C)c1 [Example 242, N-cyclopropyl-3-[1-(4-methoxy-2-methylphenyl)phthalazin-6-yl]-4-methylbenzamide] | ≥ 5.30
15 | Cc1ccc(C(N)=O)cc1-c1ccc2c(-c3ccc([S+](C)[O-])cc3C)nncc2c1 (centres unmarked) [Example 243, 4-methyl-3-{1-[2-methyl-4-(methylsulfinyl)phenyl]phthalazin-6-yl}benzamide] | ≥ 5.30
16 | Cc1ccc(C(=O)NC2CC2)cc1-c1ccc2c(-c3cccs3)nncc2c1 [Example 244, N-cyclopropyl-4-methyl-3-(1-thien-2-ylphthalazin-6-yl)benzamide] | ≥ 5.30
17 | Cc1ccc(C(=O)NC2CC2)cc1-c1ccc2c(-c3ccc(OC(F)(F)F)cc3)nncc2c1 [Example 245, N-cyclopropyl-4-methyl-3-{1-[4-(trifluoromethoxy)phenyl]phthalazin-6-yl}benzamide] | ≥ 5.30
18 | Cc1ccc(C(=O)NC2CC2)cc1-c1ccc2c(-c3ccccc3F)nncc2c1 [Example 246, N-cyclopropyl-3-[1-(2-fluorophenyl)phthalazin-6-yl]-4-methylbenzamide] | ≥ 5.30
19 | CNc1noc2c(-c3ccc4c(-c5cccnc5C)nncc4c3)c(C)ccc12 [Example 247, N,6-dimethyl-7-[1-(2-methylpyridin-3-yl)phthalazin-6-yl]-1,2-benzisoxazol-3-amine] | ≥ 5.30
20 | COc1c(F)cccc1-c1nncc2cc(-c3cc(C(=O)NC4CC4)ccc3C)ccc12 [Example 248, N-cyclopropyl-3-[1-(3-fluoro-2-methoxyphenyl)phthalazin-6-yl]-4-methylbenzamide] | ≥ 5.30
21 | Cc1ccc(C(=O)NC2CC2)cc1-c1ccc2c(-c3ccc(C(F)(F)F)cc3)nncc2c1 [Example 249, N-cyclopropyl-4-methyl-3-{1-[4-(trifluoromethyl)phenyl]phthalazin-6-yl}benzamide] | ≥ 5.30

Row | Structure (SMILES) | pIC50
22 | Cc1ccc(C(=O)NC2CC2)cc1-c1ccc2c(-c3ccccc3)nncc2c1 [Example 250, N-cyclopropyl-4-methyl-3-(1-phenylphthalazin-6-yl)benzamide] | ≥ 5.30
23 | CCc1ccccc1-c1nncc2cc(-c3cc(C(=O)NC4CC4)ccc3C)ccc12 [Example 251, N-cyclopropyl-3-[1-(2-ethylphenyl)phthalazin-6-yl]-4-methylbenzamide] | ≥ 5.30
24 | COc1cc(-c2nncc3cc(-c4cc(C(N)=O)ccc4C)ccc23)c(C)cn1 [Example 252, 3-[1-(2-methoxy-5-methylpyridin-4-yl)phthalazin-6-yl]-4-methylbenzamide] | ≥ 5.30
25 | Cc1ccc(C(=O)NC2CC2)cc1-c1ccc2c(-c3ccc(C(C)(C)C)cc3)nncc2c1 [Example 253, 3-[1-(4-tert-butylphenyl)phthalazin-6-yl]-N-cyclopropyl-4-methylbenzamide] | ≥ 5.30
26 | Cc1ccc(C(=O)NC2CC2)cc1-c1ccc2c(-c3ccccc3C(F)(F)F)nncc2c1 [Example 254, N-cyclopropyl-4-methyl-3-{1-[2-(trifluoromethyl)phenyl]phthalazin-6-yl}benzamide] | ≥ 5.30
27 | Cc1ccc(C(N)=O)cc1-c1ccc2c(-c3cccnc3C)nncc2c1 [Example 255, 4-methyl-3-[1-(2-methylpyridin-3-yl)phthalazin-6-yl]benzamide] | ≥ 5.30
28 | Cc1ccc(C(=O)NC2CC2)cc1-c1ccc2c(-c3ccc(S(C)(=O)=O)cc3C)nncc2c1 [Example 256, N-cyclopropyl-4-methyl-3-{1-[2-methyl-4-(methylsulfonyl)phenyl]phthalazin-6-yl}benzamide] | ≥ 5.30
29 | Cc1ccc(C(=O)NC2CC2)cc1-c1ccc2c(-c3ccc(Cl)cc3C)nncc2c1 [Example 257, 3-[1-(4-chloro-2-methylphenyl)phthalazin-6-yl]-N-cyclopropyl-4-methylbenzamide] | ≥ 5.30
30 | COc1ccc(-c2nncc3cc(-c4cc(C(=O)NC5CC5)ccc4C)ccc23)c(C(F)(F)F)c1 [Example 258, N-cyclopropyl-3-{1-[4-methoxy-2-(trifluoromethyl)phenyl]phthalazin-6-yl}-4-methylbenzamide] | ≥ 5.30
31 | Cc1ccc(C(N)=O)cc1-c1ccc2c(-c3cc(F)ncc3C)nncc2c1 [Example 259, 3-[1-(2-fluoro-5-methylpyridin-4-yl)phthalazin-6-yl]-4-methylbenzamide] | ≥ 5.30
32 | CSc1ccc(-c2nncc3cc(-c4cc(C(N)=O)ccc4C)ccc23)c(C)c1 [Example 260, 4-methyl-3-{1-[2-methyl-4-(methylsulfanyl)phenyl]phthalazin-6-yl}benzamide] | ≥ 5.30
33 | CSc1ccc(-c2nncc3cc(-c4cc(C(=O)NC5CC5)ccc4C)ccc23)c(C)c1 [Example 261, N-cyclopropyl-4-methyl-3-{1-[2-methyl-4-(methylsulfanyl)phenyl]phthalazin-6-yl}benzamide] | ≥ 5.30
34 | COc1cc(F)ccc1-c1nncc2cc(-c3cc(C(=O)NC4CC4)ccc3C)ccc12 [Example 262, N-cyclopropyl-3-[1-(4-fluoro-2-methoxyphenyl)phthalazin-6-yl]-4-methylbenzamide] | ≥ 5.30
35 | Cc1ccc(C(=O)NC2CC2)cc1-c1ccc2c(-c3ccncc3C)nncc2c1 [Example 263, N-cyclopropyl-4-methyl-3-[1-(3-methylpyridin-4-yl)phthalazin-6-yl]benzamide] | ≥ 5.30
36 | COc1ncc(-c2nncc3cc(-c4cc(C(=O)NC5CC5)ccc4C)ccc23)cn1 [Example 264, N-cyclopropyl-3-[1-(2-methoxypyrimidin-5-yl)phthalazin-6-yl]-4-methylbenzamide] | ≥ 5.30
37 | Cc1ccc(C(=O)N(C)C)cc1-c1ccc2c(N3CCOCC3)nncc2c1 [Example 265, N,N,4-trimethyl-3-(1-morpholin-4-ylphthalazin-6-yl)benzamide] | ≥ 5.30
38 | Cc1ccc(C(=O)NC2CC2)cc1-c1ccc2c(N3CCCOCC3)nncc2c1 [Example 266, N-cyclopropyl-4-methyl-3-[1-(1,4-oxazepan-4-yl)phthalazin-6-yl]benzamide] | ≥ 5.30
39 | Cc1ccc(C(=O)NC2CC2)cc1-c1ccc2c(N3CCN4C(=O)CC[C@@H]4C3)nncc2c1 [Example 267, 3-{1-[(8aR)-6-oxohexahydropyrrolo[1,2-a]pyrazin-2(1H)-yl]phthalazin-6-yl}-N-cyclopropyl-4-methylbenzamide] | ≥ 5.30
40 | Cc1ccc(C(=O)NC2CCC2)cc1-c1ccc2c(N3CCN4C(=O)OC[C@@H]4C3)nncc2c1 [Example 269, 3-{1-[(8aS)-3-oxotetrahydro[1,3]oxazolo[3,4-a]pyrazin-7(1H)-yl]phthalazin-6-yl}-N-cyclobutyl-4-methylbenzamide] | ≥ 5.30
41 | Cc1ccc(C(N)=O)cc1-c1ccc2c(N3CCCOCC3)nncc2c1 [Example 270, 4-methyl-3-[1-(1,4-oxazepan-4-yl)phthalazin-6-yl]benzamide] | ≥ 5.30
